Laboratory results reported in patent US9133157B2, “HIV protease inhibitors” (Merck Canada Inc., priority 2011, dated 2015).

Each molecule was assayed against WT HIV-1 protease (Human immunodeficiency virus type 1 group M subtype B (isolate HXB2) (HIV-1), UniProt P04585) (assay: Assay for inhibition of microbial expressed HIV protease (Procedure A, peptide substrate, HPLC fluorescence detection)). Settings: WT HIV-1 protease 10 pM, substrate 400 micromolar, pH 5.5, 30 min preincubation, 1 hour at 30° C.; read-out: Enzyme inhibition IC50.
Format: biochemical
Procedure: The inhibition of WT HIV-1 protease was studied using the reaction of the protease (expressed in Eschericia coli) with a peptide substrate [Val-Ser-Gln-Asn-(betanaphthyl)Ala-Pro-Ile-Val (SEQ ID NO:1)]. Compounds were tested using Procedure A. In Procedure A, the test compound was first preincubated with the enzyme in assay buffer (50 mM sodium acetate, pH 5.5, 100 mM NaCl, and 0.1% BSA) for 30 minutes at room temperature. Substrate was then added to 400 micromolar in a total volume of 80 microliters containing 10 picomolar HIV-1 protease and the reaction was incubated for 1 hour at 30° C. The reaction was quenched with the addition of 120 microliters of 10% phosphoric acid. The product formation was determined after separation of product and substrate on a Zorbax Eclipse XDB-C18 column (Agilent Technologies, Santa Clara, Calif.) connected to an Agilent 1100 high performance liquid chromatography system with fluorescence detection (excitation 270 nanometer and emission 330 nanometer).

Row | Structure (SMILES) | IC50 [nM]
1 | COC(=O)N[C@H](C(=O)NCc1csc(C(CO)N(CCC(C)C)S(=O)(=O)c2ccccc2)c1)C(c1ccccc1)c1ccccc1 (stereo partly drawn) [Example 1, N-[(5-{2-hydroxy-1-[(3-methylbutyl)(phenylsulfonyl)amino]ethyl}thiophen-3-yl)methyl]-Nα-(methoxycarbonyl)-β-phenyl-L-phenylalaninamide] | 72.8
2 | COC(=O)N[C@H](C(=O)NCc1cnc(C(CO)N(CCC(C)C)S(=O)(=O)c2ccccc2)s1)C(c1ccccc1)c1ccccc1 (stereo partly drawn) [Example 2, N-[(2-{2-hydroxy-1-[(3-methylbutyl)(phenylsulfonyl)amino]ethyl}-1,3-thiazol-5-yl)methyl]-Nα-(methoxycarbonyl)-β-phenyl-L-phenylalaninamide] | 250
3 | COC(=O)N[C@H](C(=O)NCc1ncc(C(CO)N(CCC(C)C)S(=O)(=O)c2ccccc2)s1)C(c1ccccc1)c1ccccc1 (stereo partly drawn) [Example 3, N-[(5-{2-hydroxy-1-[(3-methylbutyl)(phenylsulfonyl)amino]ethyl}-1,3-thiazol-2-yl)methyl]-Nα-(methoxycarbonyl)-β-phenyl-L-phenylalaninamide] | 12.1
4 | COC(=O)N[C@H](C(=O)NCc1ccc(C(CO)N(CCC(C)C)S(=O)(=O)c2ccccc2)s1)C(c1ccccc1)c1ccccc1 (stereo partly drawn) [Example 4] | 8.81
5 | COC(=O)N[C@H](C(=O)NCc1ccc(C(CO)N(CCC(C)C)S(=O)(=O)c2ccc(CO)cc2)s1)C(c1ccccc1)c1ccccc1 (stereo partly drawn) [Example 5] | 0.54
6 | COC(=O)N[C@H](C(=O)NCc1cc(C(CO)N(CCC(C)C)S(=O)(=O)c2ccccc2)cs1)C(c1ccccc1)c1ccccc1 (stereo partly drawn) [Example 6, N-[(4-{2-hydroxy-1-[(3-methylbutyl)(phenylsulfonyl)amino]ethyl}thiophen-2-yl)methyl]-Nα-(methoxycarbonyl)-β-phenyl-L-phenylalaninamide] | 42.7
7 | COC(=O)N[C@H](C(=O)NC(C)c1ccc(C(CO)N(CCC(C)C)S(=O)(=O)c2ccccc2)s1)C(c1ccccc1)c1ccccc1 (stereo partly drawn) [Example 7, N-[1-(5-{2-hydroxy-1-[(3-methylbutyl)(phenylsulfonyl)amino]ethyl}thiophen-2-yl)ethyl]-Nα-(methoxycarbonyl)-β-phenyl-L-phenylalaninamide] | 3.5
8 | COC(=O)N[C@H](C(=O)NC(C)c1ccc(C(CO)N(CCC(C)C)S(=O)(=O)c2ccc(CO)cc2)s1)C(c1ccccc1)c1ccccc1 (stereo partly drawn) [Example 8] | 0.31
9 | CCC(NC(=O)[C@@H](NC(=O)OC)C(c1ccccc1)c1ccccc1)c1ccc(C(CO)N(CCC(C)C)S(=O)(=O)c2ccc(CO)cc2)s1 (stereo partly drawn) [Example 9] | 0.63
10 | COC(=O)N[C@H](C(=O)NCc1ccc([C@@H](CO)N(CC(C)C)S(=O)(=O)c2ccc(N)cc2)s1)C(c1ccccc1)c1ccccc1 [Example 10, N-({5-[(1R)-1-{[(4-aminophenyl)sulfonyl](2-methylpropyl)amino}-2-hydroxyethyl]thiophen-2-yl}methyl)-Nα-(methoxycarbonyl)-β-phenyl-L-phenylalaninamide] | 2.6
11 | COC(=O)N[C@H](C(=O)NCc1ccc([C@@H](CO)N(CC2CC(F)(F)C2)S(=O)(=O)c2ccc(N)cc2)s1)C(c1ccccc1)c1ccccc1 [Example 11] | 1.61
12 | COC(=O)N[C@H](C(=O)NCc1ccc([C@@H](CO)N(C(C)C)S(=O)(=O)c2ccc(N)cc2)s1)C(c1ccccc1)c1ccccc1 [Example 12] | 18.8
13 | COC(=O)N[C@H](C(=O)NCc1ccc([C@@H](CO)N(Cc2cc3cccnc3[nH]2)S(=O)(=O)c2ccc(N)cc2)s1)C(c1ccccc1)c1ccccc1 [Example 13] | 3.9
14 | COC(=O)N[C@H](C(=O)NCc1ccc([C@@H](CO)N(CC(C)C)S(=O)(=O)c2cccc(CC(C)(C)O)c2)s1)C(c1ccccc1)c1ccccc1 [Example 14] | 4.1
15 | COC(=O)N[C@H](C(=O)NCc1ccc([C@@H](CO)N(CC2CC(F)(F)C2)S(=O)(=O)c2cccc(CC(C)(C)O)c2)s1)C(c1ccccc1)c1ccccc1 [Example 15] | 6.6
16 | COC(=O)N[C@H](C(=O)NCc1ccc([C@@H](CO)N(CC2CC(F)(F)C2)S(=O)(=O)c2ccc3cc[nH]c(=O)c3c2)s1)C(c1ccccc1)c1ccccc1 [Example 16] | 0.44
17 | COC(=O)N[C@H](C(=O)NCc1ccc([C@@H](CO)N(CC2CC(F)(F)C2)S(=O)(=O)c2ccc3c(c2)COCC3)s1)C(c1ccccc1)c1ccccc1 [Example 17] | 2.4
18 | COC(=O)N[C@H](C(=O)NCc1ccc([C@@H](CO)N(Cc2nonc2C)S(=O)(=O)c2ccc(N)cc2)s1)C(c1ccccc1)c1ccccc1 [Example 18] | 6.95
19 | COC(=O)N[C@H](C(=O)NCc1ccc([C@@H](CO)N(Cc2cnon2)S(=O)(=O)c2ccc(N)cc2)s1)C(c1ccccc1)c1ccccc1 [Example 19] | 33.8
20 | COC(=O)N[C@H](C(=O)NCc1ccc(C(CO)N(Cc2cnon2)S(=O)(=O)c2ccc(N)cc2)s1)C(c1ccccc1)c1ccccc1 (stereo partly drawn) [Example 20] | 6.97
21 | COC(=O)N[C@H](C(=O)NCc1ccc(C(CO)N(C(C)C)S(=O)(=O)c2ccc3scnc3c2)s1)C(c1ccccc1)c1ccccc1 (stereo partly drawn) [Example 21] | 62.4

Row | Structure (SMILES) | IC50 [nM]
22 | COC(=O)N[C@H](C(=O)NCc1ccc([C@@H](CO)N(CC(C)C)S(=O)(=O)c2ccc3scnc3c2)s1)C(c1ccccc1)c1ccccc1 [Example 22] | 6.1
23 | COC(=O)N[C@H](C(=O)NCc1ccc([C@H](CO)N(CC(C)C)S(=O)(=O)c2ccc3scnc3c2)s1)C(c1ccccc1)c1ccccc1 [Example 23] | 60.9
24 | COC(=O)N[C@H](C(=O)NCc1ccc(C(CO)N(Cc2cc3ccccc3[nH]2)S(=O)(=O)c2ccc3scnc3c2)s1)C(c1ccccc1)c1ccccc1 (stereo partly drawn) [Example 24] | 13.6
25 | COC(=O)N[C@H](C(=O)NCc1ccc([C@@H](CO)N(Cc2cc3ccccc3[nH]2)S(=O)(=O)c2ccc3scnc3c2)s1)C(c1ccccc1)c1ccccc1 [Example 25] | 7.99
26 | COC(=O)N[C@H](C(=O)NCc1ccc(C(CO)N(Cc2cccnc2OC)S(=O)(=O)c2ccc3scnc3c2)s1)C(c1ccccc1)c1ccccc1 (stereo partly drawn) [Example 26] | 31
27 | COC(=O)N[C@H](C(=O)NCc1ccc(C(CO)N(Cc2ccnc(OC)c2)S(=O)(=O)c2ccc3scnc3c2)s1)C(c1ccccc1)c1ccccc1 (stereo partly drawn) [Example 27] | 15.5
28 | COC(=O)N[C@H](C(=O)NCc1ccc([C@@H](CO)N(Cc2ccnc(OC)c2)S(=O)(=O)c2ccc3scnc3c2)s1)C(c1ccccc1)c1ccccc1 [Example 28] | 1.45
29 | COC(=O)N[C@H](C(=O)NCc1ccc([C@H](CO)N(Cc2ccnc(OC)c2)S(=O)(=O)c2ccc3scnc3c2)s1)C(c1ccccc1)c1ccccc1 [Example 29] | 106
30 | COC(=O)N[C@H](C(=O)NCc1ccc(C(CO)N(Cc2cnn(S(=O)(=O)N(C)C)c2)S(=O)(=O)c2ccc3scnc3c2)s1)C(c1ccccc1)c1ccccc1 (stereo partly drawn) [Example 30] | 5.13
31 | COC(=O)N[C@H](C(=O)NCc1ccc(C(CO)N(Cc2cn[nH]c2)S(=O)(=O)c2ccc3scnc3c2)s1)C(c1ccccc1)c1ccccc1 (stereo partly drawn) [Example 31] | 3.62
32 | COC(=O)N[C@H](C(=O)NCc1ccc([C@@H](CO)N(Cc2cn[nH]c2)S(=O)(=O)c2ccc3scnc3c2)s1)C(c1ccccc1)c1ccccc1 [Example 32] | 2.27
33 | COC(=O)N[C@H](C(=O)NCc1ccc([C@H](CO)N(Cc2cn[nH]c2)S(=O)(=O)c2ccc3scnc3c2)s1)C(c1ccccc1)c1ccccc1 [Example 33] | 96.6
34 | COC(=O)N[C@H](C(=O)NCc1ccc(C(CO)N(Cc2cc3cccnc3[nH]2)S(=O)(=O)c2ccc3scnc3c2)s1)C(c1ccccc1)c1ccccc1 (stereo partly drawn) [Example 34] | 35
35 | COC(=O)N[C@H](C(=O)NCc1ccc([C@@H](CO)N(Cc2cc3cccnc3[nH]2)S(=O)(=O)c2ccc3scnc3c2)s1)C(c1ccccc1)c1ccccc1 [Example 35] | 11.9
36 | COC(=O)N[C@H](C(=O)NCc1ccc(C(CO)N(CC2CC(F)(F)C2)S(=O)(=O)c2ccc3c(c2)CCC3O)s1)C(c1ccccc1)c1ccccc1 (stereo partly drawn) [Example 36] | 3.65
37 | COC(=O)N[C@H](C(=O)NCc1ccc([C@@H](CO)N(CC2CC(F)(F)C2)S(=O)(=O)c2ccc3c(c2)CCC3O)s1)C(c1ccccc1)c1ccccc1 (stereo partly drawn) [Example 37] | 5.65
38 | COC(=O)N[C@H](C(=O)NCc1ccc([C@@H](CO)N(CC2CC(F)(F)C2)S(=O)(=O)c2ccc3c(c2)C(O)CC3)s1)C(c1ccccc1)c1ccccc1 (stereo partly drawn) [Example 38] | 13.6
39 | COC(=O)N[C@H](C(=O)NCc1ccc([C@@H](CO)N(CC2CC(F)(F)C2)S(=O)(=O)c2cccc(C(=O)c3ccccn3)c2)s1)C(c1ccccc1)c1ccccc1 [Example 40] | 175
40 | COC(=O)N[C@H](C(=O)NCc1ccc([C@@H](CO)N(CC2CC(F)(F)C2)S(=O)(=O)c2ccc3cc[nH]c3c2)s1)C(c1ccccc1)c1ccccc1 [Example 41] | 8.83
41 | COC(=O)N[C@H](C(=O)NCc1ccc([C@@H](CO)N(CC2CC(F)(F)C2)S(=O)(=O)c2cccc(Cc3ccccn3)c2)s1)C(c1ccccc1)c1ccccc1 [Example 42] | 110
42 | COC(=O)N[C@H](C(=O)NCc1ccc([C@@H](CO)N(CC2CC(F)(F)C2)S(=O)(=O)c2ccc(N)c(F)c2)s1)C(c1ccccc1)c1ccccc1 [Example 43] | 5.04
